Assay results as given in ChEMBL document CHEMBL1201862, “PubChem BioAssay data set” (2004).
Calls of active or inactive are those of the source.

Legend:
[1] = biological target: T1, Alkaline phosphatase, tissue-nonspecific isozyme (Homo sapiens, UniProt P05186); experiment: potency against alkaline phosphatase TNAP – biochemical, luminescent, dose response, SAR follow-up (AID 1056)
T1 sequence (P05186 whole entry): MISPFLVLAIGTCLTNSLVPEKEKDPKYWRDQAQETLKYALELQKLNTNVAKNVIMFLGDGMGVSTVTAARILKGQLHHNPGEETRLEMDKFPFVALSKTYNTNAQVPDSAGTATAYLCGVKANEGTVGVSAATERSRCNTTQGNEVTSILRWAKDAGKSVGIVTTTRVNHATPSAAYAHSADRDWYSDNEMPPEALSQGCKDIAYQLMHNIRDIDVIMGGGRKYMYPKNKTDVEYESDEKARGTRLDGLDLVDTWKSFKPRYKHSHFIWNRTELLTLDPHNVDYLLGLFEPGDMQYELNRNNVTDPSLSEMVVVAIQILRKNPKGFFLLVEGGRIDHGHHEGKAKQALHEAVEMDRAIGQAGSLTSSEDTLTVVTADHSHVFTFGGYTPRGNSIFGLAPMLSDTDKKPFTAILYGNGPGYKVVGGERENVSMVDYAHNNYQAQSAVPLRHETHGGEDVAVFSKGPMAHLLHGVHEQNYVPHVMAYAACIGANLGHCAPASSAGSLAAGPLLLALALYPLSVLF

[2] = biological target: Glyceraldehyde-3-phosphate dehydrogenase (Homo sapiens, UniProt P04406)
Sequence of Glyceraldehyde-3-phosphate dehydrogenase (P04406 whole entry): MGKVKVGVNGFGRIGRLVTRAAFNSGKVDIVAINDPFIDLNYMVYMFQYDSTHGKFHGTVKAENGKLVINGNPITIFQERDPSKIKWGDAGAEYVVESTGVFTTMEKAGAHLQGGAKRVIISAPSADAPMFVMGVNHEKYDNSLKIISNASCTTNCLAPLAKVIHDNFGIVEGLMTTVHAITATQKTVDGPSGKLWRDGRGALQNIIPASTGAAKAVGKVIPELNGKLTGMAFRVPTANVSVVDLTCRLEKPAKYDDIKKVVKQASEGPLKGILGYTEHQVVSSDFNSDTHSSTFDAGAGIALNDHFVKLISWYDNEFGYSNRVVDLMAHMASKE

[3] = biological target: Mitogen-activated protein kinase 10 (Homo sapiens, UniProt P53779); experiment: Dose response biochemical screening assay for inhibitors of c-Jun N-Terminal Kinase 3 (JNK3). [Related pubchem assays: 746 ]
Sequence of Mitogen-activated protein kinase 10 (P53779 whole entry): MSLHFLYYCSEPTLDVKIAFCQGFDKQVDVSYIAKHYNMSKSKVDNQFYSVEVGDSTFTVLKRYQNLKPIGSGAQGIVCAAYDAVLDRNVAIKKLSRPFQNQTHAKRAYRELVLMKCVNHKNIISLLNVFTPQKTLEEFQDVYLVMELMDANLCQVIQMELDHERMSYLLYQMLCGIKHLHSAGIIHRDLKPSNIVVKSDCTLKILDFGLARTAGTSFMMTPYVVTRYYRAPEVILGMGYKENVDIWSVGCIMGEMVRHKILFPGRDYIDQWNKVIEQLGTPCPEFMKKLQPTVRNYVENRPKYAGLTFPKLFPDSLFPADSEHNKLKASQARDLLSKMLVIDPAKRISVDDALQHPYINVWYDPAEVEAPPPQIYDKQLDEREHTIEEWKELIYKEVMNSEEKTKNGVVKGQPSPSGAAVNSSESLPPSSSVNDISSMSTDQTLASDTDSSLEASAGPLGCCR

[4] = viability loss in THP-1 monocytes – THP-1 cells, cytotoxicity control for Vif-APOBEC3G degradation inhibitor project, dose response (AID 1117359); type: functional; settings: THP-1
[5] = NIH3T3 cell viability loss – ATP luminescence, mouse fibroblasts, counter-screen, dose response (AID 2010); type: functional, cell-based;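 also: cells exposed to compound for about 90 hours before reading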
[6] = Trypanosoma cruzi growth suppression in host cells – NIH3T3 host cells, beta-gal luminescence, confirmation (AID 2044); type: functional, cell-based;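 also: intracellular parasites grown in NIH/3T3 mouse fibroblasts as host cells; luminescent beta-galactosidase reporter signal from transgenic T. cruzi replicating inside host cells; inhibitors lower the luminescence signal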
Transthyretin = Transthyretin (Homo sapiens, UniProt P02766); experiment: Luminescence-based cell-based high throughput dose response assay to identify activators of Transthyretin (TTR) transcription.; type: functional
[7] = DRD fibroblast viability loss – cell-based, non-viral oncogenic, luminescence, dose response (AID 1934); type: functional; settings: Homo sapiens
[8] = biological target: T2, Short transient receptor potential channel 4 (Mus musculus, UniProt Q9QUQ5); experiment: block of DAMGO-driven TRPC4 calcium entry – cell-based, HEK293 TRPC4/mu-opioid, Fluo-4 calcium, dose response (AID 434942); type: functional;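 also: potency of inhibitors blocking the TRPC4 calcium response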
T2 sequence (Q9QUQ5 whole entry): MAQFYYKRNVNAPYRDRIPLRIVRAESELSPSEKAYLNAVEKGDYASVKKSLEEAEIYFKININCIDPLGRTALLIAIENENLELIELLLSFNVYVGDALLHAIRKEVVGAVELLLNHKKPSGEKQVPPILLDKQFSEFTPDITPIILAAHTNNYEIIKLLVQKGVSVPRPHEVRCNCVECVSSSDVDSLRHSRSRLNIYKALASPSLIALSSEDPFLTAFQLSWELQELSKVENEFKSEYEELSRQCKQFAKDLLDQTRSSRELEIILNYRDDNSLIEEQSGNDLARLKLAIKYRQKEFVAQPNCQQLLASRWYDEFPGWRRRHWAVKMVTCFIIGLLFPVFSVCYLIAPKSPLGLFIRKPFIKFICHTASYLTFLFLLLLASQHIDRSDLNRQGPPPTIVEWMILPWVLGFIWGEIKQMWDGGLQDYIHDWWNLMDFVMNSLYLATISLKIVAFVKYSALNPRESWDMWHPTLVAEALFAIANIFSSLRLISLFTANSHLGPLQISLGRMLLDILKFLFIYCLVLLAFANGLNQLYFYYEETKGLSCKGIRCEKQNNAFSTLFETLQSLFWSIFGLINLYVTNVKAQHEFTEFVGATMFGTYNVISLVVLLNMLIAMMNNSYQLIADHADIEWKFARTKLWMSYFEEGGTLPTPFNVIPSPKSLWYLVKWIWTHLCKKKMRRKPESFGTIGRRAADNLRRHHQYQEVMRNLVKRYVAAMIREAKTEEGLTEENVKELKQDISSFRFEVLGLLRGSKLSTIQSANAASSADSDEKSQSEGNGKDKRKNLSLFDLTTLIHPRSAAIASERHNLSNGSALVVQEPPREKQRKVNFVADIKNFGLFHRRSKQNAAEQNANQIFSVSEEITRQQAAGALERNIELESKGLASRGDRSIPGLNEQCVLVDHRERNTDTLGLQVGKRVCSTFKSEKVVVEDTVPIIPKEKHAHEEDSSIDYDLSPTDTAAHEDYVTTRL

BJ [9] = experiment: cells; type: functional, cell-based; settings: Homo sapiens
BJ [10] = experiment: BJ-TERT-LT-ST fibroblast viability loss – cell-based, RAS-independent, luminescence, dose response (AID 1935); type: functional; settings: Homo sapiens;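 also: BJ fibroblasts immortalized with TERT plus LT and ST oncogenes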
BJ [11] = experiment: growth inhibition of engineered Ras-driven BJ cells – cell-based, alamar blue fluorescence, cherrypicked samples, dose response (AID 2631); type: functional; settings: Homo sapiens;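 also: confirmatory dose-response assay in RAS-dependent BJ fibroblasts engineered with TERT, LT and ST, with cytotoxicity read by fluorescence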
BJ [12] = experiment: BJ-TERT fibroblast viability loss – cell-based, RAS-independent, luminescence, dose response (AID 1933); type: functional; settings: Homo sapiens
[13] = biological target: T3, DNA repair protein RAD52 homolog (Homo sapiens, UniProt P43351); type: functional, biochemical
T3 sequence (P43351 whole entry): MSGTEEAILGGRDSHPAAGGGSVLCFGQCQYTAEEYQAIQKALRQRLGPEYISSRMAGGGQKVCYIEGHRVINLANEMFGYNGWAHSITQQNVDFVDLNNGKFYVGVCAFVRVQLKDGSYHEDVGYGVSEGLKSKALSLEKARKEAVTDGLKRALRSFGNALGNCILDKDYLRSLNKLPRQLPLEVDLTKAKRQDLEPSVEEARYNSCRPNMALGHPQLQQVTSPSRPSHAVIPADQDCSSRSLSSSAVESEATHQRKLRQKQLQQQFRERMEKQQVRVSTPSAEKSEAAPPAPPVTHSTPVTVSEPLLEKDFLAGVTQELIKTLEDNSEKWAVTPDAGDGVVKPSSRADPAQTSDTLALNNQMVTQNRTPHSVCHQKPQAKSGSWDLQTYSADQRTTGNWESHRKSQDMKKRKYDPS

INS1 = experiment: INS-1E survival protection against cytokine death – cell-based, luminescence, retest, dose response (AID 449756); type: functional; settings: Rattus norvegicus;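 also: cell death triggered by IL-1 beta plus TNF-alpha plus IFN-gamma mixture; protective hits raise ATP signal compared with cytokine alone wells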
[14] = biological target: T4, DNA repair and recombination protein RAD54-like (Homo sapiens, UniProt Q92698); experiment: RAD54 Holliday junction migration blockers – biochemical, fluorescence, cherry-picked samples, dose series, confirmation (AID 651657); type: functional
T4 sequence (Q92698 whole entry): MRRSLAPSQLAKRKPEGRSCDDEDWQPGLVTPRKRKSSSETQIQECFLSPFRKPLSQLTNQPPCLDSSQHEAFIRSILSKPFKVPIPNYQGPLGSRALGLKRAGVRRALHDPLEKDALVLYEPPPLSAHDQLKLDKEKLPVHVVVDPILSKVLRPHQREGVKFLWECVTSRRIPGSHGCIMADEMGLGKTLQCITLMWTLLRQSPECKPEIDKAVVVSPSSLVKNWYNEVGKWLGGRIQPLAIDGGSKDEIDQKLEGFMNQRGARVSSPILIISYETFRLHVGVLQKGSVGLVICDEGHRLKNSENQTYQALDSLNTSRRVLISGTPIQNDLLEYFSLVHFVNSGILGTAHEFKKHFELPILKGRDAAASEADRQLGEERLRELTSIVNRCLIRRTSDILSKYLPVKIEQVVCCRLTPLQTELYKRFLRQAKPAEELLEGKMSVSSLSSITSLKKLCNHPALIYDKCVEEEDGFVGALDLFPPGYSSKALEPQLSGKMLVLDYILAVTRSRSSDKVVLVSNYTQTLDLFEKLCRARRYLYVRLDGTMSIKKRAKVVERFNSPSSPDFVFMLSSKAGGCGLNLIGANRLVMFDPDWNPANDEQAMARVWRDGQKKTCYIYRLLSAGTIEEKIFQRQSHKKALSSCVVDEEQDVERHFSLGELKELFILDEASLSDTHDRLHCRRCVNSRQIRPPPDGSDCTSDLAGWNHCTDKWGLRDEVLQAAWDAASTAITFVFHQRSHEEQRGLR

[15] = NIH-3T3 fibroblast cytotoxicity, dose response, cytotoxicity control, cell-based, fluorescence, Alamar Blue, secondary assay (AID 2327); type: functional;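 also: NIH-3T3 mouse fibroblasts cultured with fluconazole at 8 µg/mL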
[16] = biological target: T5, Carboxy-terminal domain RNA polymerase II polypeptide A small phosphatase 1 (Homo sapiens, UniProt Q9GZU7); experiment: CTDSP1 inhibitors, concentration-response, biochemical, absorbance readout, ultra-high-throughput screen actives (AID 540297); type: functional
T5 sequence (Q9GZU7 whole entry): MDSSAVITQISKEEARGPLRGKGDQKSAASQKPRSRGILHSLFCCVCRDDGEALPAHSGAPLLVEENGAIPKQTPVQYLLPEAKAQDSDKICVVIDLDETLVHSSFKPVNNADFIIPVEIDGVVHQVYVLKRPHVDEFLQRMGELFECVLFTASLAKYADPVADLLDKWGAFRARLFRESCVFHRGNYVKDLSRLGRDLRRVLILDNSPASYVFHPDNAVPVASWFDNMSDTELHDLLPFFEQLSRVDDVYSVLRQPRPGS

[17] = biological target: Bifunctional protein GlmU (Mycobacterium tuberculosis, UniProt P9WMN3); experiment: Inhibitors of Mycobacterial Glucosamine-1-phosphate acetyl transferase (GlmU). Secondary screen.; set-up: species or system Mycobacterium tuberculosis H37Rv
Sequence of Bifunctional protein GlmU (P9WMN3 whole entry): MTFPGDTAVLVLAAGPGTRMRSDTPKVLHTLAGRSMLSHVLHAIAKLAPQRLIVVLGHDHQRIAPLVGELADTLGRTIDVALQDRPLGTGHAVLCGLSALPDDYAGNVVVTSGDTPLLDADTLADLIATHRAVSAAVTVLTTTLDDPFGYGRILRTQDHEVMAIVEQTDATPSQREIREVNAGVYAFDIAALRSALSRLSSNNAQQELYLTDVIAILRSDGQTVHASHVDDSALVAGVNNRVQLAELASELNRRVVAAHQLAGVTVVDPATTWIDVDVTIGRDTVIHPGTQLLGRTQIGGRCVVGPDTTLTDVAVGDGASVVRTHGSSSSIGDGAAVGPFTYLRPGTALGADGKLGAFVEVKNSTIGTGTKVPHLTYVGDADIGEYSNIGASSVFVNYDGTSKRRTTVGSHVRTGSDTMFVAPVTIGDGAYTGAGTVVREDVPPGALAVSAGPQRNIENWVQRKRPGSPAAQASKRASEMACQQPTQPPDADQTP

[18] = biological target: T6, Histone-lysine N-methyltransferase NSD2 (Homo sapiens, UniProt O96028); type: biochemical
T6 sequence (O96028 whole entry): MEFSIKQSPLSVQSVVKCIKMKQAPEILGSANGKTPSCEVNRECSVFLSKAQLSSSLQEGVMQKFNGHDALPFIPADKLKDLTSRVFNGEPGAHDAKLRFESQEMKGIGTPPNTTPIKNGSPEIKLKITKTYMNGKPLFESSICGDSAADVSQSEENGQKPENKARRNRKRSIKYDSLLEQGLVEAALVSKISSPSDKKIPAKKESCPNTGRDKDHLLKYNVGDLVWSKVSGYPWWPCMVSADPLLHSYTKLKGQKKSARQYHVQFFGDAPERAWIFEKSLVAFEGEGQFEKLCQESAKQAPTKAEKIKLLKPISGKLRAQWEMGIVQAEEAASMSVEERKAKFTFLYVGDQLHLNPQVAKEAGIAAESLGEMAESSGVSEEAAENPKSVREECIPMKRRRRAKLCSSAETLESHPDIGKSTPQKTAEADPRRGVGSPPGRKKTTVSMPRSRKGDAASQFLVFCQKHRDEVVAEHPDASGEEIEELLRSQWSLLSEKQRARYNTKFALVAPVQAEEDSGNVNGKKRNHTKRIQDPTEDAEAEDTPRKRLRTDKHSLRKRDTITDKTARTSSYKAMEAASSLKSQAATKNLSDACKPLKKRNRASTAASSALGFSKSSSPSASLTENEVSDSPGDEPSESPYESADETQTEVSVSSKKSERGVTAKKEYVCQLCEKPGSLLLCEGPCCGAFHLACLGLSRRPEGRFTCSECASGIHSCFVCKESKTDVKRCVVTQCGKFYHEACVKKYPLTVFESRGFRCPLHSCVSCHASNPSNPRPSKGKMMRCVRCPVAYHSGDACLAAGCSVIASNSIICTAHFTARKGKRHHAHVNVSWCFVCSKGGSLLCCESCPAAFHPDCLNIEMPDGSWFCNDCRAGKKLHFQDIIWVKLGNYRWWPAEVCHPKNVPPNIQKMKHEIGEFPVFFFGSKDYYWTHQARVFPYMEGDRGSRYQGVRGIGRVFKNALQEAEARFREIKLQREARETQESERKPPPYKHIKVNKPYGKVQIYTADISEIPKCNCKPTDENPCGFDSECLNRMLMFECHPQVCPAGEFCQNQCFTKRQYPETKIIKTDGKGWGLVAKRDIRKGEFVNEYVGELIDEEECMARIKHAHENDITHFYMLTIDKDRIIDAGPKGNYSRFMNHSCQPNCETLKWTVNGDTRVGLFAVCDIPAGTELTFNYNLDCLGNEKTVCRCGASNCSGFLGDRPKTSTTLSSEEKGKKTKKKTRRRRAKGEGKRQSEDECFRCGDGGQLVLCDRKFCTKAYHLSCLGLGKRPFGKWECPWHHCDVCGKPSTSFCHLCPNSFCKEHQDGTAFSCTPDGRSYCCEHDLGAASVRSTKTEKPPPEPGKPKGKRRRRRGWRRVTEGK

[19] = fluconazole-exposed Candida albicans growth modulators – fluorescence, retest, confirmation (AID 2467); type: functional, cell-based
Genome polyprotein = Genome polyprotein (dengue virus type 2, UniProt P29990); experiment: flavivirus cap methylation enzyme inhibition – biochemical, confirmation dose response, primary screen (AID 588689); type: functional
Sequence of Genome polyprotein (P29990 2492-3391 limits assumed): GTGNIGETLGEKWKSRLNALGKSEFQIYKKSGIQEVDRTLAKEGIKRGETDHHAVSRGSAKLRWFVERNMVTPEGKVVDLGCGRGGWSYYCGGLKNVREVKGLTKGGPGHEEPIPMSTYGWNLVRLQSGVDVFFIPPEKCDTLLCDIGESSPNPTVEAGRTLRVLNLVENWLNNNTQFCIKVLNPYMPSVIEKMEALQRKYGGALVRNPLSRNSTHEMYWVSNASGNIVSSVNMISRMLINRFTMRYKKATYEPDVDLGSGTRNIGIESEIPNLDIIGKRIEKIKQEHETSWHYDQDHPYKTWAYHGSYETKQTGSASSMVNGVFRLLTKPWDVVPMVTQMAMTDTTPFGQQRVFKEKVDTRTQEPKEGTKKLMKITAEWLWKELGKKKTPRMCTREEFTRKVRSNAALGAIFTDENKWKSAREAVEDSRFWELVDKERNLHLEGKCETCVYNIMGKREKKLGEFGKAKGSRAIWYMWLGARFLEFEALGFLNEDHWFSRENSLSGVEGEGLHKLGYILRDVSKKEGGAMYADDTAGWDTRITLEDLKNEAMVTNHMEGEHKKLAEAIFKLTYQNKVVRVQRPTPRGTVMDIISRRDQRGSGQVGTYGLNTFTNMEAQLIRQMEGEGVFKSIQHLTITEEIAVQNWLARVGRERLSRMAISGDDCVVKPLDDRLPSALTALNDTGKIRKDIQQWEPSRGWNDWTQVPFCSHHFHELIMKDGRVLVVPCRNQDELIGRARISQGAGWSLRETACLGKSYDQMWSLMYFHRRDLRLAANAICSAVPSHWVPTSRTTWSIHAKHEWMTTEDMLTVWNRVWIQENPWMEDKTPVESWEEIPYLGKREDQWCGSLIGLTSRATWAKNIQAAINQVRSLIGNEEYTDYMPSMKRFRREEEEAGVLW

[20] = biological target: Long-chain-fatty-acid--AMP ligase FadD28 (Mycobacterium tuberculosis, UniProt P9WQ59); experiment: Fluorescence polarization aasay to screen for inhibitors that compete for the binding of FadD28 to a bisubstrate Measured in Biochemical System Using Plate Reader - 2147-01_Inhibitor_Dose_CherryPick_Activity.; type: functional, Mycobacterium tuberculosis H37Rv
Sequence of Long-chain-fatty-acid--AMP ligase FadD28 (P9WQ59 whole entry): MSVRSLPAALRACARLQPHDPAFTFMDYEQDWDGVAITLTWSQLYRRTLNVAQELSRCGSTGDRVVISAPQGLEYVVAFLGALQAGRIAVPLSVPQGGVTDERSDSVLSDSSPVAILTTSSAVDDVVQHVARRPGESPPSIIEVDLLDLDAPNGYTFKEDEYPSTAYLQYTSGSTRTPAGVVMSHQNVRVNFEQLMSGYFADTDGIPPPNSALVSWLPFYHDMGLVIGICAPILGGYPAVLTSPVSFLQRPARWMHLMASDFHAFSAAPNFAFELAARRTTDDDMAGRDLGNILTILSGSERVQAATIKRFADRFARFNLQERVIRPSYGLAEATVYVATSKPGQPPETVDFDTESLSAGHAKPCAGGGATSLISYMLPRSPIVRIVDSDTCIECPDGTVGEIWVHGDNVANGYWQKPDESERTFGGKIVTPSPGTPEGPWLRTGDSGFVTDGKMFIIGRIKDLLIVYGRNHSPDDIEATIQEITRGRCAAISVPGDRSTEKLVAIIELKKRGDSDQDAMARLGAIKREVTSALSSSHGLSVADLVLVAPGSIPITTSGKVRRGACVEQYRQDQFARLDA

Large T antigen = Large T antigen (Simian virus 40, UniProt P03070); type: functional, Betapolyomavirus macacae;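 also: Confirmatory-stage PubChem screen for compounds that inhibit SV40 T antigen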
Sequence of Large T antigen (P03070 whole entry): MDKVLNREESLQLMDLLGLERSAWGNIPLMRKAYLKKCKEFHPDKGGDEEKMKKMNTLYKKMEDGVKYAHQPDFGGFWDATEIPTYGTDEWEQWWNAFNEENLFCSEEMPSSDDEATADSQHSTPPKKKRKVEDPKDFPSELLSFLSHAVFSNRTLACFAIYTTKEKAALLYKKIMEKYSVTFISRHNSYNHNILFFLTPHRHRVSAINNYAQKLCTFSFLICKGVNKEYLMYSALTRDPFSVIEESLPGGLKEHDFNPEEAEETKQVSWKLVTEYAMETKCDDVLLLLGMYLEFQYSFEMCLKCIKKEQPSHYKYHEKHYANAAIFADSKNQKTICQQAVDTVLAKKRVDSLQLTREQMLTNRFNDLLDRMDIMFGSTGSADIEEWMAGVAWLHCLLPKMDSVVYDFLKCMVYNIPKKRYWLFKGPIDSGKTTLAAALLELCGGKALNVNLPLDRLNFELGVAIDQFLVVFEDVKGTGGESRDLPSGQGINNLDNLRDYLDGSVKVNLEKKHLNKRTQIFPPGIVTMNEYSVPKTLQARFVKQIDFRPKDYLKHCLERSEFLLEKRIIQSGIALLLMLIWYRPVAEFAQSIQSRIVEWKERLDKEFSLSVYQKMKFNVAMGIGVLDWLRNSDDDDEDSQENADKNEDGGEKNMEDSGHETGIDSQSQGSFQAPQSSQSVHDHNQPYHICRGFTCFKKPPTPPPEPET

## c1ccc(-c2[nH]nc3ccccc23)cc1
[1]
  IC50: 3.53 µM (active)
[2]
  IC50: > 10 µM (inconclusive)
[3]
  IC50: 2.34 µM (active)

## O=[N+]([O-])c1ccc(/C=N/Nc2nc(N3CCCC3)nc(N3CCCC3)n2)o1
[4]
  CC50: > 40 µM (active)
[5]
  EC50: > 60 µM (not active)
[6]
  EC50: 0.563 µM (active)

## CN(C)CC(CCC(CN(C)C)C(O)(c1ccccc1)c1ccccc1)C(O)(c1ccccc1)c1ccccc1 (stereo not given)
Transthyretin
  EC50: > 167 µM (inactive)
[7]
  EC50: 5.81 µM (active)
[8]
  EC50: 1.68 µM (active)
BJ [9]
  EC50: 11.6 µM (active)
BJ [10]
  EC50: 5.82 µM (inconclusive)
BJ [11]
  EC50: 2.13 µM (active)
BJ [12]
  EC50: 4.97 µM (inconclusive)

## COc1ccc(CCNc2c3ccccc3nc3ccccc23)cc1OC
Transthyretin
  EC50: > 167 µM (inactive)
[13]
  AC50: 6.38 µM (active)
INS1
  AC50: 4.5 µM (active)
[14]
  AC50: 7.87 µM (active)

## Cc1cccc(N2NC(=O)/C(=C/c3ccc(-c4ccc(Cl)c(C(=O)O)c4)o3)C2=O)c1
[15]
  EC50: > 150 µM (inactive)
[16]
  IC50: 3.84 µM (active)
[17]
  IC50: 122 µM (active)
[18]
  AC50: > 20 µM (inactive)
[19]
  EC50: > 38 µM (not active)
Genome polyprotein
  IC50: 22.5 µM (active)
[20]
  AC50: > 100 µM (inactive)
Large T antigen
  IC50: 22.3 µM (active)
